Test results taken from patent US20240148821A1, “PHARMACEUTICAL USE OF CYCLIC PEPTIDE COMPOUND” (CHUGAI SEIYAKU KABUSHIKI KAISHA, priority 2021, published 2024).
pIC50: −log10 of the molar value. Bridge positions count the residues as written; N and C are the ends. Square brackets hold non-standard residues; d marks the D form. Peptide text beside a SMILES is read from it. * marks the point of attachment. hPhe(3,5-F2-4-CF3) = N[C@@H](CCc1cc(F)c(C(F)(F)F)c(F)c1)C(=O)O; hPhe(3-Cl-4-CF3) = N[C@@H](CCc1ccc(C(F)(F)F)c(Cl)c1)C(=O)O; NMePhe(4-CF3) = CN[C@@H](Cc1ccc(C(F)(F)F)cc1)C(=O)O; 3Oxa8azabicyclo(3.2.1)octane = C1CC2COCC1N2*; NEtPhe(4-Me) = CCN[C@@H](Cc1ccc(C)cc1)C(=O)O; NMeAbu(4,4,4-F3) = CN[C@@H](CC(F)(F)F)C(=O)O; NMePhe(4-Me) = CN[C@@H](Cc1ccc(C)cc1)C(=O)O; NMeGly(cPent) = CN[C@H](C(=O)O)C1CCCC1; Pro(4,4-F2) = O=C(O)[C@@H]1CC(F)(F)CN1; NMeCha = CN[C@@H](CC1CCCCC1)C(=O)O; NMehLeu = CN[C@@H](CCC(C)C)C(=O)O; Hyp = O=C(O)[C@@H]1C[C@@H](O)CN1; NMeChg = CN[C@H](C(=O)O)C1CCCCC1; NMeI = CC[C@H](C)[C@H](NC)C(=O)O; NMeD = CN[C@@H](CC(=O)O)C(=O)O; NMeL = CN[C@@H](CC(C)C)C(=O)O; Morpholide = C1CN(*)CCO1; NMeA = CN[C@@H](C)C(=O)O; Pyrrolidide = C1CCN(*)C1; Ac5c = NC1(C(=O)O)CCCC1; Aze = O=C(O)[C@@H]1CCN1; Sar = CNCC(=O)O

Key:
[1] = test system: Human pancreatic cancer cell line AsPC-1 (G12D mutation Kras); assay: AsPC-1 cell growth inhibition (AsPC-1 CGI); format: cell-based; conditions: read-out: AsPC-1 cell growth inhibition, 50% growth inhibitory concentration (IC50 value); 96 hours, CellTiter-Glo, values classified in ranges
Method: Test compounds were serially dilated with dimethyl sulfoxide, and 200 nL was then dispensed to a U-bottom 96-well plate using Labcyte Echo. […] The cell suspension was dispensed to a. plate containing a test compound at 100 μL per well and incubated at 37° C. in a 5% carbon dioxide gas incubator. 96 hours later, 80 μL of CellTiter-Glo (Promega) was added to each well and fluorescence was measured.

[2] = biological target: protein-protein interaction between Kras and SOS1 (biotin-tagged human Kras loaded with GDP, His-tagged human SOS1) (Homo sapiens (Human), UniProt P01116, G12D); assay: Protein-protein interaction inhibition between Kras and SOS1 (KrasG12D-SOS PPI) using AlphaScreen; format: biochemical; conditions: AlphaScreen; biotin-tagged human Kras loaded with GDP, His-tagged human SOS1; read-out: KRAS G12D-SOS PPI IC50;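 also: kras produced in E. coli, Ni-coupled donor beads and streptavidin acceptor beads, excitation 680 nm with emission detected at 520–620 nm via singlet oxygen transfer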

| SMILES | pIC50 [1] | pIC50 [2] |
| --- | --- | --- |
| CC[C@H](C)[C@@H]1NC(=O)[C@H](CC(C)C)N(C)C(=O)C[C@@H](C(=O)N2CCOCC2)N(C)C(=O)[C@H](C2CCCC2)N(C)C(=O)C2(CCCC2)NC(=O)[C@@H]2CCCN2C(=O)[C@H](CCc2cc(F)c(C(F)(F)F)c(F)c2)NC(=O)CN(C)C(=O)[C@H](C2CCCC2)N(C)C(=O)[C@@H]2CCN2C(=O)[C@H](C)N(C)C1=O [Compound 1336] ([NMeL]I[NMeA][Aze][NMeGly(cPent)][Sar][hPhe(3,5-F2-4-CF3)]P[Ac5c][NMeGly(cPent)][NMeD]-Morpholide; lactam N-11) | ≥ 7.70 | 9.18 |
| CCO[C@@H]1C[C@H]2C(=O)NC3(CCCC3)C(=O)N(C)[C@@H](C3CCCCC3)C(=O)N(C)[C@H](C(=O)N3CCCC3)CC(=O)N(C)[C@@H](CC(F)(F)F)C(=O)N[C@@H]([C@@H](C)CC)C(=O)N(C)CC(=O)N(C)CC(=O)N(C)[C@@H](Cc3ccc(C)cc3)C(=O)N(C)CC(=O)N[C@@H](CCc3ccc(C(F)(F)F)c(Cl)c3)C(=O)N2C1 [Compound 1339] ([NMeAbu(4,4,4-F3)]I[Sar][Sar][NMePhe(4-Me)][Sar][hPhe(3-Cl-4-CF3)][Hyp](Et)[Ac5c][NMeChg][NMeD]-Pyrrolidide; lactam N-11) | ≥ 7.70 | 9.24 |
| CCO[C@@H]1C[C@H]2C(=O)NC3(CCCC3)C(=O)N(C)[C@@H](C3CCCCC3)C(=O)N(C)[C@H](C(=O)N3C4CCC3COC4)CC(=O)N(C)[C@@H](CC(C)C)C(=O)N[C@@H]([C@@H](C)CC)C(=O)N(C)CC(=O)N(C)CC(=O)N(C)[C@@H](CC3CCCCC3)C(=O)N(C)CC(=O)N[C@@H](CCc3cc(F)c(C(F)(F)F)c(F)c3)C(=O)N2C1 [Compound 1341] ([NMeL]I[Sar][Sar][NMeCha][Sar][hPhe(3,5-F2-4-CF3)][Hyp](Et)[Ac5c][NMeChg][NMeD]-{3Oxa8azabicyclo(3.2.1)octane}; lactam N-11) | ≥ 7.70 | 9.09 |
| CC[C@H](C)[C@@H]1NC(=O)[C@H](CC(C)C)N(C)C(=O)C[C@@H](C(=O)N2CCOCC2)N(C)C(=O)[C@H]([C@@H](C)CC)N(C)C(=O)C2(CCCC2)NC(=O)[C@@H]2CC(F)(F)CN2C(=O)[C@H](CCc2cc(F)c(C(F)(F)F)c(F)c2)NC(=O)CN(C)C(=O)[C@H](Cc2ccc(C(F)(F)F)cc2)N(C)C(=O)[C@@H]2CCN2C(=O)[C@H](C)N(C)C1=O [Compound 1348] ([NMeL]I[NMeA][Aze][NMePhe(4-CF3)][Sar][hPhe(3,5-F2-4-CF3)][Pro(4,4-F2)][Ac5c][NMeI][NMeD]-Morpholide; lactam N-11) | ≥ 7.70 | 9.21 |
| CC[C@H](C)[C@@H]1NC(=O)[C@H](CC(C)C)N(C)C(=O)C[C@@H](C(=O)N2CCCC2)N(C)C(=O)[C@H]([C@@H](C)CC)N(C)C(=O)C2(CCCC2)NC(=O)[C@@H]2CCCN2C(=O)[C@H](CCc2cc(F)c(C(F)(F)F)c(F)c2)NC(=O)CN(C)C(=O)[C@H](Cc2ccc(C)cc2)N(CC)C(=O)[C@@H]2CCN2C(=O)[C@H](C)N(C)C1=O [Compound 1351] ([NMeL]I[NMeA][Aze][NEtPhe(4-Me)][Sar][hPhe(3,5-F2-4-CF3)]P[Ac5c][NMeI][NMeD]-Pyrrolidide; lactam N-11) | ≥ 7.70 | 9.09 |
| CC[C@H](C)[C@@H]1NC(=O)[C@H](CCC(C)C)N(C)C(=O)C[C@@H](C(=O)N2CCOCC2)N(C)C(=O)[C@H]([C@@H](C)CC)N(C)C(=O)C2(CCCC2)NC(=O)[C@@H]2CCCN2C(=O)[C@H](CCc2ccc(C(F)(F)F)c(Cl)c2)NC(=O)CN(C)C(=O)[C@H](Cc2ccc(C(F)(F)F)cc2)N(C)C(=O)[C@@H]2CCN2C(=O)[C@H](C)NC1=O [Compound 1356] ([NMehLeu]IA[Aze][NMePhe(4-CF3)][Sar][hPhe(3-Cl-4-CF3)]P[Ac5c][NMeI][NMeD]-Morpholide; lactam N-11) | ≥ 7.70 | 8.96 |
| CC[C@H](C)[C@@H]1NC(=O)[C@H](CC(C)C)N(C)C(=O)C[C@@H](C(=O)N2CCCC2)N(C)C(=O)[C@H]([C@@H](C)CC)N(C)C(=O)C2(CCCC2)NC(=O)[C@@H]2CCCN2C(=O)[C@H](CCc2ccc(C(F)(F)F)c(Cl)c2)NC(=O)CN(C)C(=O)[C@H](Cc2ccc(C(F)(F)F)cc2)N(C)C(=O)[C@@H]2CCN2C(=O)[C@H](C)NC1=O [Compound 1360] ([NMeL]IA[Aze][NMePhe(4-CF3)][Sar][hPhe(3-Cl-4-CF3)]P[Ac5c][NMeI][NMeD]-Pyrrolidide; lactam N-11) | ≥ 7.70 | 9.01 |
| CC[C@H](C)[C@@H]1NC(=O)[C@H](CC(C)C)N(C)C(=O)C[C@@H](C(=O)N2CCOCC2)N(C)C(=O)[C@H]([C@@H](C)CC)N(C)C(=O)C2(CCCC2)NC(=O)[C@@H]2CCCN2C(=O)[C@H](CCc2cc(F)c(C(F)(F)F)c(F)c2)NC(=O)CN(C)C(=O)[C@H](Cc2ccc(C(F)(F)F)cc2)N(C)C(=O)[C@@H]2CCN2C(=O)[C@H](C)N(C)C1=O [Compound 1362] ([NMeL]I[NMeA][Aze][NMePhe(4-CF3)][Sar][hPhe(3,5-F2-4-CF3)]P[Ac5c][NMeI][NMeD]-Morpholide; lactam N-11) | ≥ 7.70 | 9.09 |
